Entries after “also recorded” stand apart in the source; their conditions may differ.
Tests used:
[1] = test system: pyramidal neurons in the cerebral cortex; assay: Patch clamp recording of sEPSC and sIPSC of cortical pyramidal neurons in brain slices; assay type: cell-based, rat; details: epilepsy group (PKHD1L1+/− rats) after H89 treatment
From the text: Results of Electrophysiological Examination of Transgenic Animal Brain Slices
In transgenic animals (PKHD1L1+/− rats), neuronal excitability increased, and H89 reduced the frequency of spontaneous excitatory post synaptic currents (sEPSC) in pyramidal neurons in the cerebral cortex.
A patch clamp technique was used to record sEPSC and sIPSC (e.g., spontaneous inhibitory post synaptic currents) of cortical pyramidal neurons […], and to observe the changes in excitatory synaptic transmission and inhibitory synaptic transmission of pyramidal neurons in each group of rats, so as to reflect any changes in neuronal excitability.

[2] = test system: pyramidal neurons in the cerebral cortex; assay: Recording of Na+ and K+ currents in pyramidal neurons in brain slices; assay type: cell-based, rat; details: control, epilepsy and epilepsy+H89 groups compared
Method: Neuronal excitability is related to Na+ and K+ currents, so the Na+ and K+ currents in pyramidal neurons in the cerebral cortex of each group of rats (e.g., PKHD1L1+/− and wild-type) were recorded. As shown in FIGS. 15A-B, there was no difference in Na+ and K+ currents in pyramidal neurons of rats among all groups (3 young rats in each group, 6 cells in the control [WT] group, 6 cells in the epilepsy [e.g., PKHD1L1+/−] group, and 6 cells in the epilepsy+H89 group), […].

[3] = test system: pyramidal neurons in the cerebral cortex; assay: Recording of the action potential of pyramidal neurons in brain slices; assay type: cell-based, rat
Method: H89 can reduce the excitability of pyramidal neurons in the cerebral cortex of rats with epilepsy. In order to further confirm the excitability of pyramidal neurons in the cerebral cortex, the action potential of pyramidal neurons was recorded. Action potential can intuitively reflect the excitability of neurons. […] Compared with the control group (e.g., WT rats), the positive potential of the epileptic group was decreased after H89 treatment, and the neuronal potential was increased after H89 treatment (P>0.05). There was no difference in the peak and half-duration of the action potential between the two groups. […] It was shown that a reduced neuron action potential threshold in epileptic rats indicates […] of pyramidal neurons, and H89 reversed this trend and improved epileptic symptoms in rats (FIGS. 16A-F).

wild-type (WT) rats = assay: PTZ-induced epilepsy model, wild-type rats; assay type: in vivo, rat
Method: (§1) Subsequently, the epileptic susceptibility of PKHD1L1+/− rats was studied using a PTZ-induced epilepsy model: A total of 10 male PKHD1L1+/− rats and 10 male wild-type (WT) rats with body weights matched with age (in weeks) were selected for inducing epileptic seizures with PTZ (40 mg/kg). The dose of PTZ selected is lower than the conventional dose in such animal modeling. Only 2 out of the 10 wild-type rats (20%), but 7 out of the 10 (70%) PKHD1L1+/− rats, were induced to have grand mal seizures of grade 4-5 (see FIG. 13A).

PKHD1L1+/− rats = assay: PTZ-induced epilepsy model, PKHD1L1+/- rats; assay type: in vivo, rat; details: PTZ 40 mg/kg
Method: as §1

SMILES | sEPSC amplitude [1] | sEPSC frequency [1] | K+ currents in pyramidal neurons [2] | Na+ currents in pyramidal neurons [2] | half-duration of the action potential ([3]; between groups) | peak of the action potential ([3]; between groups) | action potential threshold ([3]; epilepsy group after H89 treatment, P<0.05) | positive post-potential (neuronal potential) of the action potential ([3]; epilepsy group after H89 treatment, P>0.05) | rats induced to have grand mal seizures of grade 4-5 (wild-type (WT) rats; PTZ 40 mg/kg, 10 male wild-type rats) [%] | mean dose of PTZ required to exhibit grade 4-5 seizures (wild-type (WT) rats; additional 5 mg/kg at 15-minute intervals, wild-type rats compared with PKHD1L1+/− rats) | rats induced to have grand mal seizures of grade 4-5 (PKHD1L1+/− rats; 10 male PKHD1L1+/− rats) [%] | maximum seizure level reached (PKHD1L1+/− rats; PKHD1L1+/− rats compared with wild-type rats)
O=S(=O)(NCCNC/C=C/c1ccc(Br)cc1)c1cccc2cnccc12 [H89] | decreased | reduced; also recorded: decreased | no difference | no difference | no difference | no difference | increased | increased | – | – | – | –
C1CCc2nnnn2CC1 [PTZ, pentylenetetrazole] | – | – | – | – | – | – | – | – | 20 | statistically significantly higher | 70 | significantly higher

Reference: patent publication US12628802B2, “Genetically modified rat having PKHD1L1 gene with point mutation and methods for its construction, detection and use” (HUASHAN HOSPITAL AFFILIATED TO FUDAN UNIVERSITY, priority 2022, dated 2026)
